{
  "source": "patent US6017958A",
  "about": "“Method of treating malignant tumors with thyroxine analogues having no significant hormonal activity” (Octamer, Inc., priority 1997, dated 2000)",
  "key": {"[1]": {"system": "protein phosphatase 2A (DU-145)", "assay": "Phosphatase activity, DU-145", "assay_type": "cell-based, human", "experimental": "Compounds 1-13 were tested for protein phosphatase 2A activation in malignant tumor cell cultures in vitro according to the protocol described in Bauer et al., 1996, \"Modification of Growth Related Enzymatic Pathways and Apparent Loss of Tumorigenicity of a Ras-Transformed Bovine Endothelial Cell Line by Treatment with 5-Iodo-6-Amino-1,2-Benzopyrone (INH2 BP),\" International J. of Oncology 8:239-252. All other compounds were ineffective."}, "[2]": {"system": "seven human cancer cell lines", "assay": "Cytocidal action on human cancer cell lines", "assay_type": "cell-based", "experimental": "(§1) Seven human cancer cell lines were obtained from the American Tissue Culture Collection (Rockville, Md.) and maintained in the recommended growth media. Cells were seeded into wells (2 cm^2) at a density of 2×10^4 cells/cm^2. Various concentrations of Compounds 1-13 were added to the media at the time of seeding.\n(§2) The cultures were incubated for 72 hours at 37° C. (5% CO2 atmosphere). Following incubation, cells were detached with trypsin and counted in a hemocytometer."}, "HT 144 (melanoma)": {"system": "HT 144 (melanoma)", "assay": "Cytocidal action/growth inhibition, HT 144", "assay_type": "cell-based", "details": "Homo sapiens", "experimental": "as §1, §2\n(§3) I100 designates the concentration at which no viable cells remained; I50 the concentration at which 50% viable cells remained, as compared to a control.\n(§4) E-ras 20 cells were cultured as reported, Bauer et al., 1996, \"Modification of growth related enzymatic pathways and apparent loss of tumorigenicity of a ras-transformed bovine endothelial cell line by treatment with 5-iodo-6-amino-1,2-benzopyrone (INH2 BP)\" Intl. J. Oncol. 8:239-252; HT-144 (melanoma), DU-145 (prostatic cancer), HeLa (cervical cancer), HL 60 (promyelocytic leukemia), MDA-MB-231 (mammary cancer), SK-Br-3 (mammary cancer), T47D (ductal mammary cancer), A559 (lung cancer) were obtained from American Type Culture Collection (Rockville, Md.) and cultured in prescribed media. The effect of DIME was tested in cultures with a starting cell density of 2×10^4 cells per cm^2 and comparison of the effect of DIME on cell growth (intact cells identified by Trypan blue exclusion) was assayed by direct cell counting after trypsinization in a hemocytometer 72 hours after drug addition.\n(§5) For DIME-exposure experiments cells were seeded into 2 cm^2 wells at a density of 2×10^4 cells/cm^2. DIME at various concentrations was added to the medium at the time of seeding. The cell cultures were then incubated for 3 days (37° C. in 5% at CO2 atmosphere)."}, "[3]": {"system": "HL-60 (promyelocytic leukemia)", "assay": "Cytocidal action/growth inhibition, HL-60", "assay_type": "cell-based", "details": "Homo sapiens, 72 h", "experimental": "as §1, §2, §3\nE-ras 20 cells were cultured as reported, Bauer et al., 1996, \"Modification of growth related enzymatic pathways and apparent loss of tumorigenicity of a ras-transformed bovine endothelial cell line by treatment with 5-iodo-6-amino-1,2-benzopyrone (INH2 BP)\" Intl. J. Oncol. 8:239-252; HT-144 (melanoma), DU-145 (prostatic cancer), HeLa (cervical cancer), HL 60 (promyelocytic leukemia), MDA-MB-231 (mammary cancer), SK-Br-3 (mammary cancer), T47D (ductal mammary cancer), A559 (lung cancer) were obtained from American Type Culture Collection (Rockville, Md.) and cultured in prescribed media. […]"}, "[4]": {"system": "T47D (ductal mammary cancer)", "assay": "Cytocidal action/growth inhibition, T47D", "assay_type": "cell-based", "details": "Homo sapiens, 72 h", "experimental": "as §1, §2, §3, §4, §5"}, "MDA-MD-231 cells": {"system": "MDA-MD-231 cells", "assay": "Inhibition of tumor cell growth", "assay_type": "cell-based, human", "details": "3 days, control 0.95", "experimental": "MDA-MD-231 human cancer cells were obtained from the American Tissue Culture Collection (Rockville, Md.) and maintained in the recommended growth media. Cells were grown in the presence of various concentrations of Compounds 1 and 14 for 3 days at 37° C."}, "MDA-MB-231 xenografts": {"system": "MDA-MB-231 xenografts", "assay": "MDA-MB-231 xenograft growth in nude mice", "assay_type": "in vivo, human tumor in nude mice", "details": "250 mg/kg gavage, 5 days/week; control 979.0 ± 154; p = 0.01; in mm³ (unit assumed)", "experimental": "MDA-MB-231 (human mammary cancer) cells were obtained from American Type Culture Collection (Rockville, Md.) and maintained in the recommended growth media. Twenty nude mice were each inoculated subcutaneously with MDA-MB-231 cells (10^6 cells/100 μL). To one group of ten mice, DIME was administered by gavage (250 mg/kg, 10 mL/kg in corn oil) once per day, 5 days per week, for a total of 32 days. The other (control) group of ten mice was given administered vehicle only according to the same dosing schedule. Tumors were measured twice weekly using a Vernier caliper, and the mean tumor volume was determined at each time point. Comparisons between groups were made using an unpaired, two-tailed t-test and the results were analyzed using analysis of variance.\nTumorigenicity of E-ras 20 Cells in athymic nude mice was assayed as described previously. Bauer et al., 1996, \"Modification of growth related enzymatic pathways and apparent loss of tumorigenicity of a ras-transformed bovine endothelial cell line by treatment with 5-iodo-6-amino-1,2-benzopyrone (INH2 BP)\" Intl. J. Oncol. 8:239-252. The in vivo antitumorigenic action of DIME was assayed on athymic mice inoculated with 10^6 MDA-MB-231 cells, as in the tumorgenicity assay. […]"}, "MDA-MB-231 cells": {"system": "MDA-MB-231 cells", "assay": "Time-lapse videomicroscopy of mitosis", "assay_type": "cell-based, human", "experimental": "Cells in sealed T-25 tissue culture flasks were placed into a temperature-controlled incubation chamber built to enclose an inverted phase-contrast microscope. The chamber was shielded from ambient room light. Every 5 min, the microscope light was switched on for 12s, during which time an image was captured by an imaging system obtained from Compix, Inc. (Mars, Pa., USA). Image sequences were analyzed with software from the same company.\n^a Mitoses were monitored by timelapse videomicroscopy during\ncontinuous exposure of cells to DIME;\n^b Fusion of daughter cells usually occurred within minutes of\ncytokinesis and involved 2-5 daughter cells."}, "[5]": {"system": "biosynthetic pathways of DNA, RNA or proteins", "assay": "Metabolic action and biosynthetic pathways"}, "[6]": {"system": "E-ras 20 cells (E-ras transformed bovine endothelial cells)", "assay": "Tumorigenicity of pretreated E-ras 20 cells in athymic nude mice", "parameters": "species or system bovine cells in nude mice", "details": "10 μM pretreatment, no in vivo drug treatment"}, "[7]": {"system": "mouse pituitary thyrotropic tumors / non-malignant mouse pituitary adenoma", "details": "cited from earlier work"}, "[8]": {"details": "Table 4, read-out: I100 (no viable cells remained)"}},
  "note": "Read-outs that look alike come from different tables or passages of the source.",
  "data": [
    {"compound": "COC(=O)c1cc(I)c(Oc2ccc(OC)cc2)c(I)c1", "note": "[Compound 1, Methyl 3,5-diiodo-4-(4'-methoxyphenoxy)benzoate]", "values": [
      {"measurement": "Phosphatase Activity", "setting": "[1]; 50 μM DIME, untreated 12.1 ± 3", "result": "19.1 ± 2.5", "unit": "fmol Pi/mg protein × min."},
      {"measurement": "activation of protein phosphatase 2A, fold", "setting": "[1]; 50 μM, DU-145 cells", "result": "at least two-fold"},
      {"measurement": "cytocidal action", "setting": "[2]; 72 hours", "result": "maximally active"},
      {"measurement": "activity in cellular assays and in vivo", "setting": "[2]; cellular assays and in vivo", "result": "highly active"},
      {"measurement": "IC50", "setting": "HT 144 (melanoma); HT-144, 72 h, day 3, Table 11, read-out: I50 (day 3)", "result": 500, "unit": "nM"},
      {"measurement": "IC50", "setting": "HT 144 (melanoma); HT-144, 72 h, Table 4, read-out: I50", "result": 500, "unit": "nM"},
      {"measurement": "IC100", "setting": "HT 144 (melanoma); HT-144, 72 h, Table 4, read-out: I100 (no viable cells remained)", "result": 4, "unit": "µM"},
      {"measurement": "IC50", "setting": "[3]; Table 4, read-out: I50", "result": 600, "unit": "nM"},
      {"measurement": "IC100", "setting": "[3]; [8]", "result": 3, "unit": "µM"},
      {"measurement": "IC50", "setting": "[4]; Table 4, read-out: I50", "result": 700, "unit": "nM"},
      {"measurement": "IC100", "setting": "[4]; [8]", "result": 3.5, "unit": "µM"},
      {"measurement": "IC50", "setting": "[4]; day 3, Table 11, read-out: I50 (day 3)", "result": 700, "unit": "nM"},
      {"measurement": "Cells (growth)", "setting": "MDA-MD-231 cells; 0.5 μM", "result": "0.20 ×10^6"},
      {"measurement": "Cells (growth)", "setting": "MDA-MD-231 cells; 1.0 μM", "result": "0.10 ×10^6"},
      {"measurement": "Cells (growth)", "setting": "MDA-MD-231 cells; 2.0 μM", "result": "0.09 ×10^6"},
      {"measurement": "Tumor Volume Day 28 ± SEM", "setting": "MDA-MB-231 xenografts", "result": "430 ± 85.6"},
      {"measurement": "increase of average time spent in mitosis", "setting": "MDA-MB-231 cells; 1 μM", "result": "more than 20 fold"},
      {"measurement": "mitoses yielding daughter cells which fused (share)", "setting": "MDA-MB-231 cells; 1 μM", "result": "Twenty percent"},
      {"measurement": "rate of entry into mitosis / traversal of interphase", "setting": "MDA-MB-231 cells; 1 μM", "result": "did not affect the rate at which the cells traversed interphase"},
      {"measurement": "No. of mitosis followed by fusion of daughter cells", "setting": "MDA-MB-231 cells; 1.0 μM, 35 mitoses monitored, control 0 of 32", "result": 7},
      {"measurement": "delay in mitosis", "setting": "MDA-MB-231 cells; 1 μM, control approximately 0.5 hr", "result": 13, "unit": "h"},
      {"measurement": "daughter cells in irregular division (FIG. 12)", "setting": "MDA-MB-231 cells; 1 μM, control exactly 2", "result": 6, "unit": "daughter cells"},
      {"measurement": "inhibition of biosynthetic pathways of DNA, RNA or proteins", "setting": "[5]", "result": "nor does it inhibit the biosynthetic pathways of DNA, RNA or proteins"},
      {"measurement": "metabolic action", "setting": "[5]", "result": "no metabolic action"},
      {"measurement": "tumor appearance after 3 months", "setting": "[6]", "result": "Tumors did not appear even after 3 months"},
      {"measurement": "growth of mouse pituitary tumor", "setting": "[7]", "result": "no inhibitory activity"}
    ]}
  ]
}
